Key:
Type in all cases: cell-based
SF-295 = assay: SRB growth assay, 2 days exposure, CNS cancer
Procedure: (§1) Arsenic trioxide (1 mg/ml, 10 mg/ampoule, manufactured by Taylor Pharmaceuticals, Decatur, Ill.) was tested at five concentrations each at 10-fold dilutions, i.e., 10^−5, 10^−6, 10^−7, 10^−8 and 10^−9 μg/ml.
(§2) The in vitro tests were performed by incubating the test cells in the presence of the indicated concentration of arsenic trioxide under standard culture conditions for a designated period of time, which is followed by a sulforhodamine B (SRB) protein assay to estimate cell viability or growth. The cell lines are organized into subpanels according to the origin of the cell lines, e.g., leukemia, breast cancer, etc. A description of the cell lines and method of testing is described in Monk et al. (1997, Anticancer Drug Des. 12:533-41) and Weinstein et al., (1997, Science 275:343-9), which are incorporated herein in their entirety.
(§3) The measurement of an effect is expressed in Percentage Growth (PG). The measured effect of the compound on a cell line is calculated according to one or the other of the following two expressions: If (Mean ODtest−Mean ODzero)≧0. then PG=100×(Mean ODtest−Mean ODzero)/(Mean ODctrl−Mean ODzero) If (Mean ODtest−Mean ODzero)<0. then PG=100×(Mean ODtest−Mean ODzero)/(Mean ODzero where: • Mean ODzero=the average of optical density measurements of SRB-derived color just before exposure of cells to the test compounds; • Mean ODtest=the average of optical density measurements of SRB-derived color after exposure of cells to the test compound for a designated period of time; and • Mean ODctrl=the average of optical density measurements of SRB-derived color after with no exposure of cells to the test compound for a designated period of time
(§4) The first two columns describe the subpanel (e.g., leukemia) and cell line (e.g., CCRF-CEM) involved. The next two columns list the Mean ODzero and Mean ODctrl; the next five columns list the Mean ODtest for each of five different concentrations. Each concentration is expressed as the log10 (molar or μg/ml). The next five columns list the calculated PGs for each concentration. The response parameters GI50, TGI and LC50 are interpolated values representing the concentrations at which the PG is +50, 0, and −50, respectively. Sometimes these response parameters cannot be obtained by interpolation. If, for instance, all of the PGs in a given row exceed +50, then none of the three parameters can be obtained by interpolation. In such a case, the value given for each response parameter is the highest concentration tested and is preceded by a “>” sign. This practice is extended similarly to the other possible situations where a response parameter cannot be obtained by interpolation.
(§5) In the first set, the cells from 56 different cancer cell lines were exposed to five concentrations of arsenic trioxide continuously for two days prior to performing the SRB assay. In the second set, the cells from 50 different cell lines (a subset of the first 56 cell lines, plus the renal cancer cell line 786-0) were exposed continuously for six days prior to the SRB assay.

U251 = assay: SRB growth assay, 2 days exposure, CNS cancer
Procedure: as §1, §2, §3, §4, §5

CCRF-CEM = assay: SRB growth assay, 6 days exposure, leukemia
Procedure: as §1, §2, §3, §4, §5

K-562 = assay: SRB growth assay, 6 days exposure, leukemia; conditions: K-562, 6 days
Procedure: as §1, §2, §3, §4, §5

MOLT-4 = assay: SRB growth assay, 6 days exposure, leukemia; conditions: MOLT-4, 6 days
Procedure: as §1, §2, §3, §4, §5

RPMI-8226 = assay: SRB growth assay, 6 days exposure, leukemia; conditions: RPMI-8226, 6 days
Procedure: as §1, §2, §3, §4, §5

DU-145 = assay: SRB growth assay, 6 days exposure, prostate cancer; conditions: DU-145, 6 days
Procedure: as §1, §2, §3, §4, §5

MDA-MB-231/ATCC = assay: SRB growth assay, 6 days exposure, breast cancer
Procedure: as §1, §2, §3, §4, §5

MDA-N = assay: SRB growth assay, 6 days exposure, breast cancer
Procedure: as §1, §2, §3, §4, §5

[1] = read-out: LC50 (the source's name)

arsenic trioxide
TGI (SF-295): >0.0126 ng/mL | Percent Growth (SF-295; log10 conc −4.9): 51% | Percent Growth (SF-295; log10 conc −5.9): 91% | Percent Growth (SF-295; log10 conc −6.9): 91% | Percent Growth (SF-295; log10 conc −7.9): 96% | Percent Growth (SF-295; log10 conc −8.9): 93% | TGI (U251): 0.00437 ng/mL | Percent Growth (U251; log10 conc −4.9): −68% | Percent Growth (U251; log10 conc −5.9): 80% | Percent Growth (U251; log10 conc −6.9): 101% | Percent Growth (U251; log10 conc −7.9): 99% | Percent Growth (U251; log10 conc −8.9): 98% | TGI (CCRF-CEM): >1.26E−05 | Mean Optical Densities (CCRF-CEM; Log 10 Concentration −4.9): 0.048 | Percent Growth (CCRF-CEM; Log 10 Concentration −4.9): 0% | Mean Optical Densities (CCRF-CEM; Log 10 Concentration −5.9): 0.320 | Percent Growth (CCRF-CEM; Log 10 Concentration −5.9): 8% | Mean Optical Densities (CCRF-CEM; Log 10 Concentration −6.9): 3.051 | Percent Growth (CCRF-CEM; Log 10 Concentration −6.9): 87% | Mean Optical Densities (CCRF-CEM; Log 10 Concentration −7.9): 3.592 | Percent Growth (CCRF-CEM; Log 10 Concentration −7.9): 102% | Mean Optical Densities (CCRF-CEM; Log 10 Concentration −8.9): 3.601 | Percent Growth (CCRF-CEM; Log 10 Concentration −8.9): 103% | CC50 (CCRF-CEM; [1]): > 12.6 µM | TGI (K-562): >1.26E−05 | Mean Optical Densities (K-562; Log 10 Concentration −4.9): 0.096 | Percent Growth (K-562; Log 10 Concentration −4.9): 2% | Mean Optical Densities (K-562; Log 10 Concentration −5.9): 2.931 | Percent Growth (K-562; Log 10 Concentration −5.9): 97% | Mean Optical Densities (K-562; Log 10 Concentration −6.9): 3.360 | Percent Growth (K-562; Log 10 Concentration −6.9): 112% | Mean Optical Densities (K-562; Log 10 Concentration −7.9): 2.992 | Percent Growth (K-562; Log 10 Concentration −7.9): 99% | Mean Optical Densities (K-562; Log 10 Concentration −8.9): 3.042 | Percent Growth (K-562; Log 10 Concentration −8.9): 101% | CC50 (K-562; [1]): > 12.6 µM | TGI (MOLT-4): >1.26E−05 | Mean Optical Densities (MOLT-4; Log 10 Concentration −4.9): 0.113 | Percent Growth (MOLT-4; Log 10 Concentration −4.9): 20% | Mean Optical Densities (MOLT-4; Log 10 Concentration −5.9): 0.245 | Percent Growth (MOLT-4; Log 10 Concentration −5.9): 47% | Mean Optical Densities (MOLT-4; Log 10 Concentration −6.9): 0.432 | Percent Growth (MOLT-4; Log 10 Concentration −6.9): 85% | Mean Optical Densities (MOLT-4; Log 10 Concentration −7.9): 0.228 | Percent Growth (MOLT-4; Log 10 Concentration −7.9): 43% | Mean Optical Densities (MOLT-4; Log 10 Concentration −8.9): 0.554 | Percent Growth (MOLT-4; Log 10 Concentration −8.9): 111% | Mean Optical Densities (RPMI-8226; Log 10 Concentration −4.9): 0.065 | Percent Growth (RPMI-8226; Log 10 Concentration −4.9): −2% | Mean Optical Densities (RPMI-8226; Log 10 Concentration −5.9): 0.368 | Percent Growth (RPMI-8226; Log 10 Concentration −5.9): 22% | Mean Optical Densities (RPMI-8226; Log 10 Concentration −6.9): 1.423 | Percent Growth (RPMI-8226; Log 10 Concentration −6.9): 99% | Mean Optical Densities (RPMI-8226; Log 10 Concentration −7.9): 1.263 | Percent Growth (RPMI-8226; Log 10 Concentration −7.9): 88% | Mean Optical Densities (RPMI-8226; Log 10 Concentration −8.9): 1.607 | Percent Growth (RPMI-8226; Log 10 Concentration −8.9): 113% | CC50 (RPMI-8226; [1]): > 12.6 µM | TGI (DU-145): 6.32E−06 | Mean Optical Densities (DU-145; Log 10 Concentration −4.9): 0.055 | Percent Growth (DU-145; Log 10 Concentration −4.9): −43% | Mean Optical Densities (DU-145; Log 10 Concentration −5.9): 2.153 | Percent Growth (DU-145; Log 10 Concentration −5.9): 100% | Mean Optical Densities (DU-145; Log 10 Concentration −6.9): 1.935 | Percent Growth (DU-145; Log 10 Concentration −6.9): 89% | Mean Optical Densities (DU-145; Log 10 Concentration −7.9): 1.954 | Percent Growth (DU-145; Log 10 Concentration −7.9): 90% | Mean Optical Densities (DU-145; Log 10 Concentration −8.9): 2.147 | Percent Growth (DU-145; Log 10 Concentration −8.9): 99% | CC50 (DU-145; [1]): > 12.6 µM | TGI (MDA-MB-231/ATCC): 3.18E−06 | Mean Optical Densities (MDA-MB-231/ATCC; Log 10 Concentration −4.9): −0.001 | Percent Growth (MDA-MB-231/ATCC; Log 10 Concentration −4.9): −100% | Mean Optical Densities (MDA-MB-231/ATCC; Log 10 Concentration −5.9): 0.563 | Percent Growth (MDA-MB-231/ATCC; Log 10 Concentration −5.9): 67% | Mean Optical Densities (MDA-MB-231/ATCC; Log 10 Concentration −6.9): 0.771 | Percent Growth (MDA-MB-231/ATCC; Log 10 Concentration −6.9): 102% | Mean Optical Densities (MDA-MB-231/ATCC; Log 10 Concentration −7.9): 0.764 | Percent Growth (MDA-MB-231/ATCC; Log 10 Concentration −7.9): 101% | Mean Optical Densities (MDA-MB-231/ATCC; Log 10 Concentration −8.9): 0.759 | Percent Growth (MDA-MB-231/ATCC; Log 10 Concentration −8.9): 100% | TGI (MDA-N): 9.55E−06 | Mean Optical Densities (MDA-N; Log 10 Concentration −4.9): 0.026 | Percent Growth (MDA-N; Log 10 Concentration −4.9): −9% | Mean Optical Densities (MDA-N; Log 10 Concentration −5.9): 1.738 | Percent Growth (MDA-N; Log 10 Concentration −5.9): 65% | Mean Optical Densities (MDA-N; Log 10 Concentration −6.9): 2.606 | Percent Growth (MDA-N; Log 10 Concentration −6.9): 98% | Mean Optical Densities (MDA-N; Log 10 Concentration −7.9): 2.616 | Percent Growth (MDA-N; Log 10 Concentration −7.9): 99% | Mean Optical Densities (MDA-N; Log 10 Concentration −8.9): 2.468 | Percent Growth (MDA-N; Log 10 Concentration −8.9): 93% | CC50 (MDA-N; [1]): > 12.6 µM
